Test: molar heat capacity at constant pressure
Settings: 101.33 kPa, Liquid, heat bridge-scanning calorimeter

CCCCn1cc[n+](C)c1.F[P-](F)(F)(F)(F)F [1-butyl-3-methylimidazolium hexafluorophosphate]
Settings | molar heat capacity at constant pressure [J/K/mol]
466.32 K | 494.48
466.46 K | 494.76
466.59 K | 495.05
466.73 K | 495.9
466.87 K | 495.33
467 K | 495.33
467.14 K | 495.33
467.28 K | 495.05
467.41 K | 495.33
467.55 K | 495.05
467.84 K | 495.05
467.98 K | 495.33
468.12 K | 495.33
468.25 K | 495.9
468.39 K | 495.9
468.52 K | 495.61
468.66 K | 495.61
468.8 K | 495.33
468.93 K | 495.05
469.25 K | 495.33
469.38 K | 495.33
469.52 K | 495.33
469.66 K | 495.33
469.79 K | 495.61
469.93 K | 495.61
470.07 K | 495.61
470.2 K | 495.61
470.34 K | 496.18
470.48 K | 495.61
470.61 K | 495.9
470.91 K | 495.9
471.04 K | 496.18
471.18 K | 496.47
471.32 K | 496.47
471.45 K | 496.47
471.59 K | 496.47
471.73 K | 496.47
471.87 K | 496.18
472 K | 496.47
472.3 K | 496.47
472.44 K | 496.47
472.58 K | 496.47
472.71 K | 496.75
472.85 K | 496.75
472.99 K | 496.47
473.12 K | 496.47
473.26 K | 496.47
473.4 K | 496.47
473.53 K | 496.47
473.67 K | 497.03
473.97 K | 498.17
474.1 K | 497.6
474.24 K | 497.32
474.38 K | 497.32
474.51 K | 497.6
474.65 K | 497.32
474.79 K | 497.03
474.92 K | 496.75
475.06 K | 496.75
475.36 K | 496.75
475.5 K | 497.03
475.63 K | 496.75
475.78 K | 497.03
475.92 K | 497.03
476.06 K | 497.03
476.19 K | 497.03
476.33 K | 497.03
476.47 K | 497.32
476.61 K | 497.32
476.74 K | 497.32
477.04 K | 497.6
477.18 K | 497.32
477.31 K | 497.6
477.45 K | 498.17
477.59 K | 497.89
477.72 K | 497.89
477.86 K | 497.89
478 K | 497.6
478.13 K | 497.6
478.44 K | 497.6
478.57 K | 497.6
478.71 K | 497.6
478.85 K | 497.6
478.98 K | 497.6
479.12 K | 497.89
479.26 K | 497.6
479.39 K | 497.6
479.53 K | 497.89
479.67 K | 497.89
479.81 K | 498.17
480.1 K | 498.17
480.24 K | 498.17
480.38 K | 497.89
480.51 K | 498.17
480.65 K | 498.17
